Measured values taken from patent US20210318318A1, “Kinase Activity In Tumors” (Institute For Cancer Research d/b/a The Research Institute …, priority 2018, published 2021).

Experiments:
Assay type in all cases: cell-based, human
COV362 = test: Short-term growth assay (CellTiter-Glo cell viability), kinase inhibitors
Procedure: (§1) Cell viability was determined by Cell Titer Glo analysis.
COV362 cells were treated with increasing concentrations of A-674563 and cell viability assessed by Cell Titer Glo according to manufacturer's instructions. Data represent the mean of six replicates.
(§2) To explore the therapeutic potential of the HGSOC kinome signature, a detailed molecular analysis of protein levels/activity, growth and survival functions was carried out in a panel of recently validated HGSOC cell lines (Coscia et al., Nat. Commun., 2016, 7, 12645) that harbor commonly encountered HGSOC mutations and genetic rearrangements (see, FIG. 5A).
(§3) For short-term growth assays, 3000-5000 cells were plated per well in 96-well plates and allowed to adhere and equilibrate overnight. Drug was added the following morning and after 120 hours of drug treatment, cell viability was assessed using the CellTiter-Glo Luminescent cell viability assay according to manufacturer (Promega). Students t tests were performed for statistical analyses and p values ≤0.05 were considered significant. For colony formation assays, cells were plated in 24-well dishes (3000-5000 cells per well) and incubated overnight before continuous drug treatment for 14 days, with drug and media replaced twice weekly. At the end of treatment, cells were rinsed with PBS and fixed with chilled methanol for 10 minutes at −20° C. Methanol was removed by aspiration, and cells were stained with 0.5% crystal violet in 20% methanol for 20 minutes at room temperature, washed with distilled water, and scanned.

SNU-119 = test: as above
Procedure: as §1, §2, §3

OVCAR4 = test: as above
Procedure: as §1, §2, §3

OVSAHO = test: as above
Procedure: as §1, §2, §3

Kuramochi = test: as above
Procedure: as §1, §2, §3

OVCAR4 cells = test: Drug growth inhibition in cells depleted of dark kinases by siRNA (Cell Titer Glo); settings: increasing doses of drug
Procedure: OVCAR4 cells were transfected with control nontargeting or dark kinase siRNAs and treated with escalating doses of appropriate drugs.
To explore if blocking dark kinases AAK1, STK38 or MRCKA activity in combination with current therapies improves drug efficacy, OVCAR4 cells depleted of AAK1, STK38 or MRCKA were treated with increasing doses of carboplatin, olaparib, JQ1, or a variety of kinase inhibitors in clinical trials for HGSOC.
siRNA transfections were performed using 25 nM siRNA duplex and the reverse transfection protocol. 3000-5000 cells per well were added to 96 well plates with media containing the siRNA and transfection reagent (Lipofectamine RNAiMax) according to the manufacturer's instructions. In experiments where inhibitors were used, the inhibitor was added at the time of transfection. Cells were allowed to grow for 72-120 hours post-transfection prior to CellTiter Glo (Promega) analysis. Two-to-three independent experiments were performed with each cell line and siRNA. Students t tests were performed for statistical analyses and p values ≤0.05 were considered significant. For western blot studies, the same procedure was performed with volumes and cell numbers proportionally scaled to a 60 mm or 10 cm dish, and cells were collected 24-72 hours post-transfection. siRNA product numbers and manufacturers are listed in Table 5.

HGSOC cells = test: Cell viability of HGSOC cell line panel (Cell Titer Glo); settings: increasing concentrations; Cell Titer Glo
Procedure: Cells were treated with increasing concentrations of PF-03758309 and cell viability assessed by Cell Titer Glo according to manufacturer's instructions. Data represent the mean of six replicates.
Cell viability was assessed by Cell Titer Glo according to manufacturing. Data represent the mean of six replicates.
as §3

Molecule: NC1(c2ccc(-c3nc4ccn5c(=O)[nH]nc5c4cc3-c3ccccc3)cc2)CCC1 [MK2206]
- Kinase inhibition profile of HGSOC cells (growth inhibition, Cell Titer Glo) (COV362; drug 0.625 uM): 0.8254
- Kinase inhibition profile of HGSOC cells (growth inhibition, Cell Titer Glo) (SNU-119; drug 0.625 uM): 0.9728
- Kinase inhibition profile of HGSOC cells (growth inhibition, Cell Titer Glo) (OVCAR4; drug 0.625 uM): 0.9771
- Kinase inhibition profile of HGSOC cells (growth inhibition, Cell Titer Glo) (OVSAHO; drug 0.625 uM): 0.6233
- Kinase inhibition profile of HGSOC cells (growth inhibition, Cell Titer Glo) (Kuramochi; drug 0.625 uM): 0.4701

Molecule: C=CCn1c(=O)c2cnc(Nc3ccc(N4CCN(C)CC4)cc3)nc2n1-c1cccc(C(C)(C)O)n1 [MK-1775]
- Kinase inhibition profile of HGSOC cells (growth inhibition, Cell Titer Glo) (COV362; drug 0.312 uM): 0.03494
- growth inhibition by drug with MRCKA knockdown relative to non-targeting control siRNA (OVCAR4 cells): enhanced growth inhibition
- Kinase inhibition profile of HGSOC cells (growth inhibition, Cell Titer Glo) (SNU-119; drug 0.312 uM): 0.4312
- Kinase inhibition profile of HGSOC cells (growth inhibition, Cell Titer Glo) (OVCAR4; drug 0.312 uM): 0.6747
- Kinase inhibition profile of HGSOC cells (growth inhibition, Cell Titer Glo) (OVSAHO; drug 0.312 uM): 0.5935
- Kinase inhibition profile of HGSOC cells (growth inhibition, Cell Titer Glo) (Kuramochi; drug 0.312 uM): 1.111

Molecule: Cc1nc(Nc2[nH]nc3c2CN(C(=O)N[C@H](CN(C)C)c2ccccc2)C3(C)C)c2sccc2n1 [PF03758039]
- Kinase inhibition profile of HGSOC cells (growth inhibition, Cell Titer Glo) (COV362; drug 1.2 uM): 0.4916
- cell viability of HGSOC cells (HGSOC cells): reduced cell viability to the greatest extent in OVCAR4 and KURMAOCHI cells
- Kinase inhibition profile of HGSOC cells (growth inhibition, Cell Titer Glo) (SNU-119; drug 1.2 uM): 0.3505
- Kinase inhibition profile of HGSOC cells (growth inhibition, Cell Titer Glo) (OVCAR4; drug 1.2 uM): 0.2063
- Kinase inhibition profile of HGSOC cells (growth inhibition, Cell Titer Glo) (OVSAHO; drug 1.2 uM): 0.659
- Kinase inhibition profile of HGSOC cells (growth inhibition, Cell Titer Glo) (Kuramochi; drug 1.2 uM): 0.4783

Molecule: CC(=O)c1c(C)c2cnc(Nc3ccc(N4CCNCC4)cn3)nc2n(C2CCCC2)c1=O [Palbociclib]
- Kinase inhibition profile of HGSOC cells (growth inhibition, Cell Titer Glo) (COV362; drug 5 uM): 0.92
- Kinase inhibition profile of HGSOC cells (growth inhibition, Cell Titer Glo) (SNU-119; drug 5 uM): 0.5867
- Kinase inhibition profile of HGSOC cells (growth inhibition, Cell Titer Glo) (OVCAR4; drug 5 uM): 0.7952
- Kinase inhibition profile of HGSOC cells (growth inhibition, Cell Titer Glo) (OVSAHO; drug 5 uM): 0.6956
- Kinase inhibition profile of HGSOC cells (growth inhibition, Cell Titer Glo) (Kuramochi; drug 5 uM): 0.09321

Molecule: CN(C)C/C=C/C(=O)Nc1ccc(C(=O)Nc2cccc(Nc3ncc(Cl)c(-c4c[nH]c5ccccc45)n3)c2)cc1 [THZ1]
- Kinase inhibition profile of HGSOC cells (growth inhibition, Cell Titer Glo) (COV362; drug 0.156 uM): 1.026
- growth inhibition by drug combined with knockdown of STK38 (OVCAR4 cells): improved growth inhibition
- growth inhibition by drug with MRCKA knockdown relative to non-targeting control siRNA (OVCAR4 cells): enhanced growth inhibition
- Kinase inhibition profile of HGSOC cells (growth inhibition, Cell Titer Glo) (SNU-119; drug 0.156 uM): 0
- Kinase inhibition profile of HGSOC cells (growth inhibition, Cell Titer Glo) (OVCAR4; drug 0.156 uM): 0
- Kinase inhibition profile of HGSOC cells (growth inhibition, Cell Titer Glo) (OVSAHO; drug 0.156 uM): 0
- Kinase inhibition profile of HGSOC cells (growth inhibition, Cell Titer Glo) (Kuramochi; drug 0.156 uM): 0.07069

Molecule: NC(=O)Nc1sc(-c2ccc(F)cc2)cc1C(N)=O [TPCA-1]
- Kinase inhibition profile of HGSOC cells (growth inhibition, Cell Titer Glo) (COV362; drug 1.2 uM): 1.094
- Kinase inhibition profile of HGSOC cells (growth inhibition, Cell Titer Glo) (SNU-119; drug 1.2 uM): 0.9375
- Kinase inhibition profile of HGSOC cells (growth inhibition, Cell Titer Glo) (OVCAR4; drug 1.2 uM): 0.8768
- Kinase inhibition profile of HGSOC cells (growth inhibition, Cell Titer Glo) (OVSAHO; drug 1.2 uM): 0.9827
- Kinase inhibition profile of HGSOC cells (growth inhibition, Cell Titer Glo) (Kuramochi; drug 1.2 uM): 0.988

Molecule: CC(=O)Nc1cccc(-n2c(=O)n(C3CC3)c(=O)c3c(Nc4ccc(I)cc4F)n(C)c(=O)c(C)c32)c1 [Trametinib]
- Kinase inhibition profile of HGSOC cells (growth inhibition, Cell Titer Glo) (COV362; drug 0.0125 uM): 0.5766
- Kinase inhibition profile of HGSOC cells (growth inhibition, Cell Titer Glo) (SNU-119; drug 0.0125 uM): 0
- Kinase inhibition profile of HGSOC cells (growth inhibition, Cell Titer Glo) (OVCAR4; drug 0.0125 uM): 0.8436
- Kinase inhibition profile of HGSOC cells (growth inhibition, Cell Titer Glo) (OVSAHO; drug 0.0125 uM): 0.7824
- Kinase inhibition profile of HGSOC cells (growth inhibition, Cell Titer Glo) (Kuramochi; drug 0.0125 uM): 0.7708

Molecule: CNCc1ccc(-c2cc(-c3nc(-c4ccc(S(=O)(=O)C(C)C)cc4)cnc3N)on2)cc1 [VX-90]
- Kinase inhibition profile of HGSOC cells (growth inhibition, Cell Titer Glo) (COV362; drug 0.625 uM): 0.3346
- Kinase inhibition profile of HGSOC cells (growth inhibition, Cell Titer Glo) (SNU-119; drug 0.625 uM): 0.51
- Kinase inhibition profile of HGSOC cells (growth inhibition, Cell Titer Glo) (OVCAR4; drug 0.625 uM): 0.2646
- Kinase inhibition profile of HGSOC cells (growth inhibition, Cell Titer Glo) (OVSAHO; drug 0.625 uM): 0.5885
- Kinase inhibition profile of HGSOC cells (growth inhibition, Cell Titer Glo) (Kuramochi; drug 0.625 uM): 0.6083

Molecule: Cc1cnc(Nc2ccc(F)cc2Cl)nc1-c1c[nH]c(C(=O)N[C@H](CO)c2cccc(Cl)c2)c1 [Vx-11e]
- Kinase inhibition profile of HGSOC cells (growth inhibition, Cell Titer Glo) (COV362; drug 0.625 uM): 1.014
- Kinase inhibition profile of HGSOC cells (growth inhibition, Cell Titer Glo) (SNU-119; drug 0.625 uM): 0.3359
- Kinase inhibition profile of HGSOC cells (growth inhibition, Cell Titer Glo) (OVCAR4; drug 0.625 uM): 0.9623
- Kinase inhibition profile of HGSOC cells (growth inhibition, Cell Titer Glo) (OVSAHO; drug 0.625 uM): 0.5488
- Kinase inhibition profile of HGSOC cells (growth inhibition, Cell Titer Glo) (Kuramochi; drug 0.625 uM): 0.3596

Molecule: AZD4547
- Kinase inhibition profile of HGSOC cells (growth inhibition, Cell Titer Glo) (COV362; drug 5 uM): 0.5474
- Kinase inhibition profile of HGSOC cells (growth inhibition, Cell Titer Glo) (SNU-119; drug 5 uM): 0.738
- Kinase inhibition profile of HGSOC cells (growth inhibition, Cell Titer Glo) (OVCAR4; drug 5 uM): 0.5989
- Kinase inhibition profile of HGSOC cells (growth inhibition, Cell Titer Glo) (OVSAHO; drug 5 uM): 0.4351
- Kinase inhibition profile of HGSOC cells (growth inhibition, Cell Titer Glo) (Kuramochi; drug 5 uM): 0.7095
